Data taken from patent US5688807A, “Method for treating 5HT2B receptor related conditions” (Eli Lilly and Company, priority 1995, dated 1997).
Counter-ions that a name gives are not always drawn. Like-named read-outs stand apart in the source and are kept apart here.

Legend:
[1] = molecular target: rat 5-HT2B receptor (Rattus norvegicus, UniProt P30994); assay: biochemical; type: binding;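 further: displacement of [3H]5-HT from membranes of suspension cells carrying cloned rat 5-HT2B receptor, incubated 15 min at 37 °C or 2 h at 0 °C, filter-bound radioactivity counted by scintillation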
[2] = molecular target: Rat 5-HT2A (Rattus norvegicus, UniProt P14842); assay: [125I]DOI radioligand binding, rat 5-HT2A; conditions: AVG
[3] = molecular target: Human 5-HT2A (Homo sapiens, UniProt P28223); assay: [125I]DOI radioligand binding, human 5-HT2A
[4] = molecular target: T1, Human 5-HT2B (Homo sapiens, UniProt P41595); assay: [3H]Serotonin radioligand binding, human 5-HT2B;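 further: competition of tritiated serotonin binding to cell membranes, bound radioactivity on filters counted by liquid scintillation, IC50 from logistic fits converted to Ki with the Cheng-Prusoff equation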
T1 construct: expressed in transfected cells

[5] = molecular target: 5-HT2B receptor (rat stomach fundus) (Rattus norvegicus, UniProt P30994);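 further: isometric contraction of isolated male Wistar rat stomach fundus strips, serotonin concentration-response curves after antagonist incubation, KB from dose ratio of agonist potency versus control curve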
[6] = molecular target: T2, 5-HT2A receptor (rat jugular vein) (Rattus norvegicus, UniProt P14842); assay: Antagonism of serotonin response in rat jugular vein (apparent antagonist dissociation constant); conditions: vs serotonin, ± standard error, read-out: 5-HT2A (Jugular) -log KB (converted)
T2 construct: rat jugular vein which is mediated by 5-HT2A receptors; from tissue; host or cells: rat jugular vein
Method: Apparent antagonist dissociation constants (KB) were determined for each concentration of antagonist according to the following equation: […]
where [B] is the concentration of the antagonist and dose ratio is the ED50 of the agonist in the presence of the antagonist divided by the control ED50. Generally, parallel shifts in the concentration-response curves occurred in the presence of antagonists. The results were expressed as the negative logarithm of the KB (i.e., -log KB). Calculations were completed using known methods.
The values in Table II are expressed as -log KB ± standard error (number of data points). The 5-HT2B value represents the negative log of the concentration of an antagonist that will produce a two fold dextral shift in the concentration response curve to serotonin in the rat stomach fundus which is mediated by 5-HT2B receptors. Likewise, the 5-HT2A value represents the negative log of the concentration of an antagonist that will produce a two fold dextral shift in the concentration response curve to serotonin in the rat jugular vein which is mediated by 5-HT2A receptors. The blank values in Table II indicate that the compound was not tested in the indicated assay.

[7] = tested on: distal colon; assay: Functional in vitro assay: antagonism of serotonin contraction of rat distal colon longitudinal muscle; conditions: vs serotonin
Source text: Functional In vitro Assay:
Sprague-Dawley rats (200-250g; Laboratory Supply, Indianapolis, Ind.) were sacrificed by cervical dislocation and 8 cm segment of distal colon was removed and washed in ice cold modified Kreb's solution of the following composition (millimolar): Nacl, 118.2; Kcl, 4.6; Cacl2. H2 O, 1.6; KH2 PO4, 1.2; MgSO4, 1.2; dextrose, 10.0; and NaHCO3, 24.8. The colon was mounted on a glass rod and the longitudinal muscle layer with attached myenteric plexi was removed and mounted in organ baths, containing above described Kreb's solution maintained at 37° C. and equilibrated with 95% O2 and 5% CO2. Tissues were placed under 2 g tension and allowed to stabilize for 1 hour. Isometric contractions were recorded as changes in grams of force using grass FT03 transducers and MI^2 - computerized dynograph system. Cumulative concentration-response curves for serotonin were obtained by a stepwise increase in concentration after washing out the preceding concentration for 10-15 minutes. Each agonist concentration remained in contact with the tissue for 5 minutes. Maximum response to each concentration was determined and digitized. EC50 values were taken as the concentration of agonist that produced half maximal contraction. After control responses were obtained, tissues were incubated with an appropriate concentration of antagonist for 15 minutes. Response to serotonin were then repeated in the presence of an antagonist. Concentration-response utilized only one concentration of antagonist per tissue. Apparent antagonist dissociation constants (KB) were determined for each concentration of antagonist according to the following equation:
KB =[B]/(dose ratio-1), where [B] is the concentration of the antagonist and dose ratio is the ED50 of the agonist in the presence of antagonist divided by the control ED50. The results were expressed as the negative logarithm of the KB (i.e., -log KB) (Br. J. Pharmacol. Methods 4:4165, (1980).
The functional in vitro method described supra. was used to test compounds of this invention. Values are expressed as pKi and pA2 (-log KB). The following table illustrates the results obtained when the compounds were tested using the Radioligand assay supra. (pKi) and the functional in vitro method described supra. (pA2)

[8] = molecular target: T3, 5HT2C (Homo sapiens, UniProt P28335); assay: Human cell assay, 5HT2C cells; type: binding; conditions: Cell assays use Human Cells
T3 construct: expressed in transfected cells
T3 sequence (P28335 33-458): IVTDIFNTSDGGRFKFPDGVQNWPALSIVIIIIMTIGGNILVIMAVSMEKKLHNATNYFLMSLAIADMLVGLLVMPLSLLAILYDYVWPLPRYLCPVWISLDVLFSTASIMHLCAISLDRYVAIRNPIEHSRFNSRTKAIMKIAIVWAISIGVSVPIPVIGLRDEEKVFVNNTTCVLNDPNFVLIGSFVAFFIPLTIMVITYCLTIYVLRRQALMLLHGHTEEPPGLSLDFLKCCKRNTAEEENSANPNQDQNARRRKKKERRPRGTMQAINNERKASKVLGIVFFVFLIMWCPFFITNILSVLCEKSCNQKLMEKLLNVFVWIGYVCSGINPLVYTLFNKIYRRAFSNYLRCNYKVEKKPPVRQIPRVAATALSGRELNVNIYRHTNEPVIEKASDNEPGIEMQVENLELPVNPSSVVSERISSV
Method: Compounds of this invention were tested using substantially the procedure describe in the Radioligand assay supra. and are summarized in Table I infra. The values in Table I are expressed as Ki values calculated as described supra. The blank values in Table I indicate that the compound was not tested in the corresponding assay.

[9] = Ki Rat 5-HT2B, [3H]Serotonin, 5-HT2B cells, AVG
[10] = [125I]DOI, AVG, read-out: Ki Human 5-HT2A
[11] = [3H]Serotonin, 5-HT2B cells, AVG, read-out: Ki Human 5-HT2B
[12] = [3H]Serotonin, 5-HT2B cells, AVG, read-out: Ki Rat 5-HT2B
[13] = rat stomach fundus, vs serotonin, ± standard error, read-out: 5-HT2B (Fundus) -log KB (converted)
[14] = Radioligand assay, Table III, read-out: pKi (converted)

rat 5-HT2B receptor, sequence (P30994 whole entry): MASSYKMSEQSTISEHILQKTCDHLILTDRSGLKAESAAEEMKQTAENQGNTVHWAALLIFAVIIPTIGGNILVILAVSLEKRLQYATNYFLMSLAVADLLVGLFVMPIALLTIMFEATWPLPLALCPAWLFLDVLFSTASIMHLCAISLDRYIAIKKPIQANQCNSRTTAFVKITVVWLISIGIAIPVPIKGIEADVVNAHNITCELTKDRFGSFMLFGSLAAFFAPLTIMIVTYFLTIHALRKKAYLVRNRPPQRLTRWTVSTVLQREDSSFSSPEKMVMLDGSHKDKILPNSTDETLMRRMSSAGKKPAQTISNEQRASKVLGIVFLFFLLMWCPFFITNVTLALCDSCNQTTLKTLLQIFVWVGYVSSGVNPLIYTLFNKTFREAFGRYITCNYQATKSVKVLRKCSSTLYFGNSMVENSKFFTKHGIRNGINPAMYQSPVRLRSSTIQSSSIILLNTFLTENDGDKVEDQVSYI
5-HT2B receptor (rat stomach fundus), sequence (P30994 whole entry): as above
T1 sequence (P41595 whole entry): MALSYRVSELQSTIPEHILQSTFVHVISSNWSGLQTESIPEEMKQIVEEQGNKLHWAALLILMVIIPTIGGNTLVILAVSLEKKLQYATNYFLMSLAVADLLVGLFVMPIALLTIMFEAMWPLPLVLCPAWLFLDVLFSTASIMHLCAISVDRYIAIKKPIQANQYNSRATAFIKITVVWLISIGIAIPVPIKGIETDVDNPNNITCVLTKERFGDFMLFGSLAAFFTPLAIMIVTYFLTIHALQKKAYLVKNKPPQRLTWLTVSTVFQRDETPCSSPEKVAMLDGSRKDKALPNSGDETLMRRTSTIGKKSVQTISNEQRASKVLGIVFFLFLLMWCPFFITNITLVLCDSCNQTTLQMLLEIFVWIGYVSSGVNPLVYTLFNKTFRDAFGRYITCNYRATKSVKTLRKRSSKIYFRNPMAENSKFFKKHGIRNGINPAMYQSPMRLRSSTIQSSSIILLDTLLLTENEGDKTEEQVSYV
Human 5-HT2A, sequence (P28223 whole entry): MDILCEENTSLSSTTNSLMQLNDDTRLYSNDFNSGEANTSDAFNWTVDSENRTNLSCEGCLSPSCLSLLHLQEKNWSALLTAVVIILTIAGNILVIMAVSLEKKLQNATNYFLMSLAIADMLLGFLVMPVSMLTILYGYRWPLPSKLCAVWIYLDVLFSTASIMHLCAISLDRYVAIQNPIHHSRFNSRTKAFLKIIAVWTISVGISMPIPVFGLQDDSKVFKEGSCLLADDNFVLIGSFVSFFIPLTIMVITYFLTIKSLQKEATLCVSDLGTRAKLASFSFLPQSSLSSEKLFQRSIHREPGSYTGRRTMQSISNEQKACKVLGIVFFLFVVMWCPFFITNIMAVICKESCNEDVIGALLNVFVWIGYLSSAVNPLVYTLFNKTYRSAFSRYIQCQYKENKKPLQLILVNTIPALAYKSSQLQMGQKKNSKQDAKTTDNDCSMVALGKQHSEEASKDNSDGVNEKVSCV
Rat 5-HT2A, sequence (P14842 whole entry): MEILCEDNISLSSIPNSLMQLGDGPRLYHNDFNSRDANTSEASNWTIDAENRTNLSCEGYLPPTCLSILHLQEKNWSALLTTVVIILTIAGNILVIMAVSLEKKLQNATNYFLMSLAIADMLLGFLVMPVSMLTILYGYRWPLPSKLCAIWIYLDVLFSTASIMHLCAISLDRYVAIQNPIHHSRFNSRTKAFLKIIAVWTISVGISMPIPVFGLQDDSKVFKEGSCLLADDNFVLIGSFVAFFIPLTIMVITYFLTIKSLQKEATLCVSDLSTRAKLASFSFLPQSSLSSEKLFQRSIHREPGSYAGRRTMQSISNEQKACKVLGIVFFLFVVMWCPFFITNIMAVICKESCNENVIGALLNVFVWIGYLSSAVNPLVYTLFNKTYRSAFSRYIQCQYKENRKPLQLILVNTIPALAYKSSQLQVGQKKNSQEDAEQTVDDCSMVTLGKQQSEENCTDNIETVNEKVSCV
T2 sequence (P14842 whole entry): as above

## CN1CC(C(=O)NC2CCCCC2)CC2c3cccc4[nH]cc(c34)CC21 (stereo not shown)
[1]; [9]
  Ki: 19 nM
[2]
  Ki: 5.12 nM

## CC(C)n1cc2c3c(cccc31)C1CC(C(=O)NC3CCCCC3)CN(C)C1C2 (stereo not shown)
[1]; [9]
  Ki: 15.1 nM
[2]
  Ki: 2.05 nM

## Cc1ccc2c(CCN)c[nH]c2c1Br
[1]; [9]
  Ki: 11.3 nM
[2]
  Ki: 14.2 nM
[3]; [10]
  Ki: 33.7 nM

## Cc1ccc2c(CCN)c[nH]c2c1Cl
[4]
  Ki: 11.2 nM
[1]; [9]
  Ki: 7.94 nM
[2]
  Ki: 20.7 nM
[3]; [10]
  Ki: 27.6 nM

## Cc1ccc2c3c([nH]c2c1Br)CNCC3
[2]
  Ki: 15.7 nM
[3]
  Ki: 21.7 nM

## Brc1cccc2c3c([nH]c12)CNCC3
[2]
  Ki: 25.6 nM
[3]
  Ki: 22.7 nM

## Cc1ccc2c3c([nH]c2c1I)CNCC3
[4]; [11]
  Ki: 10.2 nM
[1]; [12]
  Ki: 15.3 nM
[3]
  Ki: 17.8 nM

## CN1CC(C(=O)N[C@H]2CC[C@H](O)CC2)CC2c3cccc4[nH]cc(c34)CC21 (stereo partly shown)
[4]
  Ki: 12.4 nM
[1]; [9]
  Ki: 44.6 nM
[2]
  Ki: 5.36 nM
[3]; [10]
  Ki: 1.25 nM

## CC(C)n1cc2c3c(cccc31)C1CC(C(=O)N[C@H]3CC[C@@H](O)CC3)CN(C)C1C2 (stereo partly shown)
[4]
  Ki: 4.3 nM
[1]; [9]
  Ki: 22.3 nM
[2]
  Ki: 1.57 nM
[3]; [10]
  Ki: 11.3 nM

## CC(C)n1cc2c3c(cccc31)C1CC(C(=O)N[C@H]3CC[C@H](O)CC3)CN(C)C1C2 (stereo partly shown)
[4]
  Ki: 6.24 nM
[1]; [9]
  Ki: 30.9 nM
[2]
  Ki: 2.82 nM
[3]; [10]
  Ki: 21.2 nM

## COc1ccc(C(C)C2NCCc3c2[nH]c2cc(C)c(C)cc32)cc1OC (racemic) [Example 41, (±) 6,7-dimethyl-1-[(3,4-dimethoxyphenyl)-1-ethyl]-1,2,3,4-tetrahydro-9H-pyrido[3,4-b]indole (Z)-2-butenedioate]
[5]; [13]
  Kb: 0.155 nM
[1]; [14]
  Ki: 6.46 nM
[6]
  Kb: 11.5 nM
[7]
  pA2 (-log KB): 7.2

## Cc1ccc2[nH]c3c(c2c1)CCNC3Cc1cccc2ccccc12 (racemic) [Example 51, (±) 6-methyl-1-(1-naphthalenylmethyl)-1,2,3,4-tetrahydro-9H-pyrido [3,4-b]indole hydrochloride]
[5]; [13]
  Kb: 0.178 nM
[6]
  Kb: 8.51 nM

## Cc1ccc2[nH]c3c(c2c1)[C@@H]1CCCC[C@H]1NC3 (relative stereo) [Example 95, Trans-10-methyl-2,3,4,4a,5,6,7,11c-octahydro-1H-indolo[2,3c]quinoline, hydrochloride]
[4]; Cell assays use Human Cells, read-out: Ki, 5HT2B Cells
  Ki: 840 nM
[8]
  Ki: 2640 nM
[3]
  Ki: 3440 nM

## CCCN(CCC)C1CCc2cccc(-c3ccno3)c2C1 (single isomer, unassigned)
[4]; [11]
  Ki: 215 nM
[1]; read-out: Ki Rat 5-HT2B, [3H]Serotonin, 5-HT2B cells, AVG
  Ki: 79.3 nM
[3]; read-out: Ki Human 5-HT2A, [125I]DOI, AVG
  Ki: 6160 nM

## COc1ccc(C(C)C2NCCc3c2[nH]c2ccc(C)cc32)cc1OC (single isomer, unassigned)
[4]; [11]
  Ki: 5.55 nM
[1]; [12]
  Ki: 30.1 nM
[3]
  Ki: 373 nM

## Brc1ccc2[nH]c3c(c2c1)CCNC3 [6-bromo-1,2,3,4-tetrahydro-9H-pyrido[3,4b]-indole]
[7]
  pA2 (-log KB): 8.2

## Clc1ccc2[nH]c3c(c2c1)CCNC3 [6-chloro-1,2,3,4-tetrahydro-9H-pyrido[3,4b]-indole]
[7]
  pA2 (-log KB): 7.2

## COc1ccc(CC2NCCc3c2[nH]c2cc(C)c(C)cc32)cc1OC (stereo not shown) [Example 16, 6,7-dimethyl-1,2,3,4-tetrahydro-1-[(3,4-dimethoxyphenyl)methyl]-9H-pyrido[3,4b]indole]
[5]
  Kb: 0.195 nM
[6]
  Kb: 7.08 nM

## CCc1ccc2[nH]c3c(c2c1)CCNC3Cc1ccc(OC)c(OC)c1 (stereo not shown) [Example 17, 6-ethyl-1,2,3,4-tetrahydro-1-[(3,4-dimethoxyphenyl)methyl]-9H-pyrido[3,4b]indole]
[5]; [13]
  Kb: 0.347 nM
[6]
  Kb: 21.9 nM
[7]
  pA2 (-log KB): 6.2

## COc1ccc(CC2NCCc3c2[nH]c2ccc(C)cc32)cc1OC (stereo not shown) [Example 20, 6-methyl-1,2,3,4-tetrahydro-1-[(3,4-dimethoxyphenyl)methyl]-9H-pyrido[3,4b]indole hydrochloride]
[6]
  Kb: 61.7 nM
[7]
  pA2 (-log KB): 7.8

## COc1ccc(CC2NCCc3c2[nH]c2ccc(C)cc32)c(OC)c1OC.Cl (stereo not shown) [Example 22, 6-methyl-1-[(2,3,4-trimethoxyphenyl)-methyl]-1,2,3,4-tetrahydro-9H-pyrido[3,4-b]indole hydrochloride]
[5]; [13]
  Kb: 6.17 nM
[1]; [14]
  Ki: 5.37 nM
[7]
  pA2 (-log KB): 4.8

## CCCOc1ccc(CC2NCCc3c2[nH]c2ccc(C)cc32)cc1OC (stereo not shown) [Example 31, 6-methyl-1-[(3-methoxy-4-propoxyphenyl)-methyl]-1,2,3,4-tetrahydro-9H-pyrido[3,4-b]indole]
[5]; [13]
  Kb: 1.12 nM
[6]
  Kb: 51.3 nM

## COc1ccc(CC2NCCc3c2[nH]c2ccc(C)cc32)c(Cl)c1OC (stereo not shown) [Example 36, 6-methyl-1-[(2-chloro-3,4-dimethoxyphenyl)-methyl]-1,2,3,4-tetrahydro-9H-pyrido[3,4-b]indole hydrochloride]
[5]; read-out: 5-HT2B (Fundus) -log KB (converted)
  Kb: 0.158 nM
[6]
  Kb: 7.24 nM

## Cc1ccc2c3c([nH]c2c1C)CNCC3 [Example 72, 7,8-dimethyl-1,2,3,4-tetrahydro-9H-pyrido[3,4b]-indole]
[1]; Radioligand assay, Table III
  pKi: 7.8
[7]
  pA2 (-log KB): 7.5

## Cc1ccc2c3c([nH]c2c1Cl)CNCC3 [Example 76, 7-methyl-8-chloro-1,2,3,4-tetrahydro-9H-pyrido[3,4b]-indole]
[7]
  pA2 (-log KB): 8.3

## CC(C)n1cc2c3c(cccc31)C1CC(C(=O)NC3CCCCC3O)CN(C)C1C2 (stereo not shown) [drawing 84]
[1]; [9]
  Ki: 10.2 nM
[2]
  Ki: 8.91 nM
[3]; [10]
  Ki: 74.5 nM

## CC(C)n1cc2c3c(cccc31)C1CC(C(=O)NC3CCCCC3O)CN(C)C1C2 (stereo not shown) [drawing 85]
[1]; [9]
  Ki: 11.4 nM
[2]
  Ki: 12.4 nM
[3]; [10]
  Ki: 108 nM

## CC(C)n1cc2c3c(cccc31)C1CC(C(=O)NC3CCCCC3O)CN(C)C1C2 (stereo not shown) [drawing 86]
[1]; [9]
  Ki: 8.61 nM
[2]
  Ki: 2.39 nM
[3]; [10]
  Ki: 15.8 nM

## CC(C)n1cc2c3c(cccc31)C1CC(C(=O)NC3CCCCC3O)CN(C)C1C2 (stereo not shown) [drawing 87]
[1]; [9]
  Ki: 9.35 nM
[2]
  Ki: 2.44 nM
[3]; [10]
  Ki: 18.6 nM

## CCc1ccc2[nH]c3c(c2c1)CCNC3Cc1ccc(OC)c(OC)c1 (stereo not shown) [drawing 143]
[4]; [11]
  Ki: 1.5 nM
[1]; [12]
  Ki: 8.16 nM
[3]
  Ki: 23.4 nM

## Cc1cc(Br)c2[nH]c3c(c2c1)CCNC3 [drawing 168]
[2]
  Ki: 47 nM
[3]
  Ki: 41.7 nM

## Cc1ccc2c3c([nH]c2c1Cl)CNCC3 [drawing 177]
[4]; [11]
  Ki: 2.68 nM
[1]; [12]
  Ki: 2.69 nM
[2]
  Ki: 15.5 nM
[3]
  Ki: 20.6 nM
